# Columns and labels:
# [1] = molecular target: T1, Serine/threonine-protein kinase haspin (Homo sapiens) (UniProt Q8TF76); experiment: Inhibition of human recombinant Haspin at 500 nM in presence of ATP by radiometric assay relative to control
# T1 sequence (whole entry): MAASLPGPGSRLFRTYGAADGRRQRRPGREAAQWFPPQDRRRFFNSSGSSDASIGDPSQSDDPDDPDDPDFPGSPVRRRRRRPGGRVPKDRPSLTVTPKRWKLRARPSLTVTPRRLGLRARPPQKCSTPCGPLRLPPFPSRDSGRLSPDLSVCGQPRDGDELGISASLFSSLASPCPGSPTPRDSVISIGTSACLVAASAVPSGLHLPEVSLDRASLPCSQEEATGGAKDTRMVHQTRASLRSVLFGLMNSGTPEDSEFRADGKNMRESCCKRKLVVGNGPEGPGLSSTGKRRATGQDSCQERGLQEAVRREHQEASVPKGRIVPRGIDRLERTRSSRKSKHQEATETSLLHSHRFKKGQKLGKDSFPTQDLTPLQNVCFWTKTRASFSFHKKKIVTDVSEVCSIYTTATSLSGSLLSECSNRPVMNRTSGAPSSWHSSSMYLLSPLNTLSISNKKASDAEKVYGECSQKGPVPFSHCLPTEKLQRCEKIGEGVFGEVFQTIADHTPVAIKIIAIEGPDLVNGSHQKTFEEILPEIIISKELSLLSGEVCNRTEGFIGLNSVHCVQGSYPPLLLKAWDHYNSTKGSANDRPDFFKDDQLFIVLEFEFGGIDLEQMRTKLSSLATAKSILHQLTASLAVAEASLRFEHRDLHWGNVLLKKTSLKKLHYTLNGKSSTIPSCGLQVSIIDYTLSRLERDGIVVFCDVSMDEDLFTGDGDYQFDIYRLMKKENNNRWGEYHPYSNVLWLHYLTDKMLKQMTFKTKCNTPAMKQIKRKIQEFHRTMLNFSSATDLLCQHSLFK
# [2] = molecular target: T2, Serine/threonine-protein kinase Sgk1 (Homo sapiens) (UniProt O00141); experiment: Inhibition of human recombinant SGK1 at 500 nM in presence of ATP by radiometric assay relative to control
# T2 sequence (whole entry): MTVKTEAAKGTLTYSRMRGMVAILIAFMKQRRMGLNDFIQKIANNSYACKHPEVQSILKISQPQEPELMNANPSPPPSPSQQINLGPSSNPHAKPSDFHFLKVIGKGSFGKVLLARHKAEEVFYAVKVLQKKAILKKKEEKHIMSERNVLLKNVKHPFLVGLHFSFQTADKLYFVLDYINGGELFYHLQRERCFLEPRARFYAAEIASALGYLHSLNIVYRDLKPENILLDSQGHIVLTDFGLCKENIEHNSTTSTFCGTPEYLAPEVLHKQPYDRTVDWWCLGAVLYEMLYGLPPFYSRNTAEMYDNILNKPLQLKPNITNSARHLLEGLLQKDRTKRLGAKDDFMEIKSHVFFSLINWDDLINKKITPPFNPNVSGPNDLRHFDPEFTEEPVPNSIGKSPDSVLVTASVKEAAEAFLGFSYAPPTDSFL
# [3] = molecular target: Tyrosine-protein kinase JAK1 (Homo sapiens) (UniProt P23458); experiment: Inhibition of human recombinant JAK1 at 500 nM related to control ULK1
# Tyrosine-protein kinase JAK1 (Homo sapiens), sequence (P23458 whole entry): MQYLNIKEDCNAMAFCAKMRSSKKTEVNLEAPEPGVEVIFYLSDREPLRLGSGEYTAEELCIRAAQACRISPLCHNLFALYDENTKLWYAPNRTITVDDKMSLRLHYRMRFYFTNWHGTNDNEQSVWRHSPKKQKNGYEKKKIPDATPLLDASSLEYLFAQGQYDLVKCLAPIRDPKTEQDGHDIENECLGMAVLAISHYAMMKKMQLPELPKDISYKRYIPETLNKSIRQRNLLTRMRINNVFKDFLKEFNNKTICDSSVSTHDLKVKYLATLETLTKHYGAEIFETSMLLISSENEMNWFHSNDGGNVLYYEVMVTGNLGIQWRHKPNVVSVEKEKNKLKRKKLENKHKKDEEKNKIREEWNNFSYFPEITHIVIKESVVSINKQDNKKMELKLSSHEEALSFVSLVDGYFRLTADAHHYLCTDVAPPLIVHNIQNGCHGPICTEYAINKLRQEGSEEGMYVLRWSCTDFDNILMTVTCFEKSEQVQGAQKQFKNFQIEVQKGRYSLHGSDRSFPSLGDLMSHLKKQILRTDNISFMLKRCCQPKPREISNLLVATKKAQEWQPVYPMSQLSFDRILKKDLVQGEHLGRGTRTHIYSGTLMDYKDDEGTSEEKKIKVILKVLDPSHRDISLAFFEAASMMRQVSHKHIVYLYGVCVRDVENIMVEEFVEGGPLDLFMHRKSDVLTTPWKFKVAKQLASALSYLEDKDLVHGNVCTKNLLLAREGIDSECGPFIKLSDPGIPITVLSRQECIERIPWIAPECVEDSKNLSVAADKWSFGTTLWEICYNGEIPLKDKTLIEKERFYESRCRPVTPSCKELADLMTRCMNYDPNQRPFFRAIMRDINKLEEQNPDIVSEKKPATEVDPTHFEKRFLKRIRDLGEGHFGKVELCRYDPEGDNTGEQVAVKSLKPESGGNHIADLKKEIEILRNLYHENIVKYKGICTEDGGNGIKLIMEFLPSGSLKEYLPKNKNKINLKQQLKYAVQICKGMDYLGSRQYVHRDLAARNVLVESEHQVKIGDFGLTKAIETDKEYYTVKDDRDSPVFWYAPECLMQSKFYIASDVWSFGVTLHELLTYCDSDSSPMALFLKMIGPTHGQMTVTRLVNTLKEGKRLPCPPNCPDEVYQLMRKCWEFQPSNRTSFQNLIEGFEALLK
# [4] = molecular target: T3, Serine/threonine-protein kinase Chk1 (Homo sapiens) (UniProt O14757); experiment: Inhibition of human recombinant CHK1 at 15 nM in presence of ATP by radiometric assay relative to control
# T3 sequence (whole entry): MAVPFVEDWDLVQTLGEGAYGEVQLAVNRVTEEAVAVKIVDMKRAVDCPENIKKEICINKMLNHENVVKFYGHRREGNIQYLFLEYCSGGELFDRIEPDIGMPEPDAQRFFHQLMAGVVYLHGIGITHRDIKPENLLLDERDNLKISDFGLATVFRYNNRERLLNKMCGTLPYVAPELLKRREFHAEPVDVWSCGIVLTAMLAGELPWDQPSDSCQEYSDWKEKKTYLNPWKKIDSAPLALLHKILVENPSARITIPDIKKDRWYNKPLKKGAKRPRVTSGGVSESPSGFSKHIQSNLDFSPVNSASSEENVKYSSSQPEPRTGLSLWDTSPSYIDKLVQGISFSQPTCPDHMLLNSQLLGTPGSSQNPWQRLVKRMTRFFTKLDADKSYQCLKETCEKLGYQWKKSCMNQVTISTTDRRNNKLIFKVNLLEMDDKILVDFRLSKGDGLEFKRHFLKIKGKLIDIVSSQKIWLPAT
# [5] = molecular target: T4, Serine/threonine-protein kinase ICK (Homo sapiens) (UniProt Q9UPZ9); experiment: Inhibition of human recombinant ICK at 40 nM related to control ULK1
# T4 sequence (whole entry): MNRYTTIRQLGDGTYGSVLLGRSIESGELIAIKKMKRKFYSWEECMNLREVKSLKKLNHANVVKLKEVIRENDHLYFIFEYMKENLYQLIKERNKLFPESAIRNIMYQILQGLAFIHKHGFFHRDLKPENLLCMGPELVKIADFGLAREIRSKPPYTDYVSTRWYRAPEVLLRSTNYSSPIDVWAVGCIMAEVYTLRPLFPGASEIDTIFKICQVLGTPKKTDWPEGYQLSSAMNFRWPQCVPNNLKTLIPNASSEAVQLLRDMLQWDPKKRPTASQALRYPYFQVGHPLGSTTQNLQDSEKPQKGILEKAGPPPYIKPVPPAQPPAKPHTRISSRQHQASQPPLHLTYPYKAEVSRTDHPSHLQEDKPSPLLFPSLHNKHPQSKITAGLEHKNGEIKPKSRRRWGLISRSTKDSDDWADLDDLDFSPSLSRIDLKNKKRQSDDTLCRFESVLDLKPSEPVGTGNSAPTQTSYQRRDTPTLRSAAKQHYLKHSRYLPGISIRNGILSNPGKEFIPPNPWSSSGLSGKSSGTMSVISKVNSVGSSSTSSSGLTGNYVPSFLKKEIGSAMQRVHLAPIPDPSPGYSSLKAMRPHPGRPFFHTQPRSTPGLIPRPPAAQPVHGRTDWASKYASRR
# [6] = molecular target: Serine/threonine-protein kinase N2 (Homo sapiens) (UniProt Q16513); experiment: Inhibition of human recombinant PKN2 at 40 nM related to control ULK1
# Serine/threonine-protein kinase N2 (Homo sapiens), sequence (Q16513 whole entry, looked up): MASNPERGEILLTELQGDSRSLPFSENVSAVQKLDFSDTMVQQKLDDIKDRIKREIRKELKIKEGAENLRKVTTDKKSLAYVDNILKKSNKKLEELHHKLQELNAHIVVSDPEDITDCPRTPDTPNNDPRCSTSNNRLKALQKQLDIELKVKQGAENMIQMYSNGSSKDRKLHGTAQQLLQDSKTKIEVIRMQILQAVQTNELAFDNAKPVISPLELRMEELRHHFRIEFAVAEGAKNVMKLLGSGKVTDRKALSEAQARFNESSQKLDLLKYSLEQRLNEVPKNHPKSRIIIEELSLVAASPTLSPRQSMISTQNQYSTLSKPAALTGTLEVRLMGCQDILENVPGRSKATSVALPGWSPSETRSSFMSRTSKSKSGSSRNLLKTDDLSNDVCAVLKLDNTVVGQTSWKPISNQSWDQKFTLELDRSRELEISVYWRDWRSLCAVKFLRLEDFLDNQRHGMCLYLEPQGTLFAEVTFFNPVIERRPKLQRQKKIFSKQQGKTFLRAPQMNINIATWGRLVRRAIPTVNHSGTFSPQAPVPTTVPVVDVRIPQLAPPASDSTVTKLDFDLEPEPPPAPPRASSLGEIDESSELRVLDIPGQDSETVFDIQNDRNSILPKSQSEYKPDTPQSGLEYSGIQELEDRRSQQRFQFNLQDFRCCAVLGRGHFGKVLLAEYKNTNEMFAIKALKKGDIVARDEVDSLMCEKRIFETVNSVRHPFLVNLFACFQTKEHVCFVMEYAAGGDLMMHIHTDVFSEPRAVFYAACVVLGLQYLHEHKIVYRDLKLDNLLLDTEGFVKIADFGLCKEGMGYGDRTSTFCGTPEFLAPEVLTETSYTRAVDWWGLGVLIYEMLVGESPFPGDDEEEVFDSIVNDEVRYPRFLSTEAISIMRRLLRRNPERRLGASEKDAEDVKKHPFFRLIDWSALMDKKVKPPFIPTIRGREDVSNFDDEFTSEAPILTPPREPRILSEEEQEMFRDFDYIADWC
compound,measurement,setting,value
CNC(=O)c1ccccc1Oc1nc(Nc2cc(OC)c(OC)c(OC)c2)ncc1Br,inhibition,[1],0%
same,inhibition,[2],2%
same,fold change (FC),[3],0.53
CC(C)[C@H](NC(=O)c1cc(-c2cnn3cc(-c4ccc(OCCN5CCCCC5)cc4)cnc23)cs1)C(F)(F)F,inhibition,[4],0%
O=C(N[C@@H](C1CC1)C(F)(F)F)c1cc(-c2cnn3cc(-c4ccc(F)cc4)cnc23)cs1,fold change (FC),[5],0
same,fold change (FC),[6],0
